One assay deals with MCF7. Briefly: Anticancer activity against human MCF7 cells by MTT assay. The format is functional, cell-based.
A short description of assay [1]: Anticancer activity against human COLO205 cells by MTT assay. The format is functional, cell-based. Particulars: COLO 205.
In another assay the test system is U-937. The assay can be described thus: Anticancer activity against human U937 cells by MTT assay. Type of assay: functional, cell-based.
Another assay has as its system A549. The assay can be described thus: Anticancer activity against human A549 cells by MTT assay. Type of assay: functional, cell-based.
The test system of assay [2] is COLO 205. The assay can be described thus: Increase in Bax expression in human COLO205 cells after 24 hrs by western blot analysis. The format is functional, cell-based.
The subject of assay [3] is COLO 205. The assay can be described thus: Induction of cell cycle arrest in human COLO205 cells assessed as accumulation at G2/M phase after 24 hrs by flow cytometry. The format is functional, cell-based.
The nature of assay [4]: Decrease in Bcl2 expression in human COLO205 cells after 24 hrs by western blot analysis. Type of assay: functional, cell-based. Particulars: COLO 205.
Assay [5] relates to COLO 205. Briefly: Induction of DNA damage in human COLO205 cells assessed as tail DNA formation by alkaline comet assay (reference value: 0%). The format is functional.
In assay [6] the test system is COLO 205. The assay can be described thus: Increase in caspase-9 expression in human COLO205 cells after 24 hrs by western blot analysis. Type of assay: functional, cell-based.
The test system of assay [7] is COLO 205. Briefly: Effect on CDK1 expression in human COLO205 cells by western blot analysis. Type of assay: functional, cell-based.
A short description of assay [8]: Decrease in NFkappaB expression in human COLO205 cells after 24 hrs by western blot analysis. Type of assay: functional, cell-based. Particulars: COLO 205.
In assay [9] the test system is COLO 205. Briefly: Increase in Apaf1 expression in human COLO205 cells after 24 hrs by western blot analysis. Type of assay: functional, cell-based.
The nature of assay [10]: Decrease in cyclin B1 expression in human COLO205 cells by western blot analysis. Type of assay: functional, cell-based. Particulars: COLO 205.
Assay [11] deals with COLO 205. The assay can be described thus: Increase in procaspase-3 expression in human COLO205 cells after 24 hrs by western blot analysis. Type of assay: functional, cell-based.
Assay [12] relates to COLO 205. Briefly: Increase in active caspase-3 expression in human COLO205 cells after 24 hrs by western blot analysis. The format is functional, cell-based.

The source made the active and inactive calls. The calls are words filed in the database; no cut-off is given here.

Turning to `FC(F)(F)Oc1ccc(-c2cc(CN(c3ncccn3)c3nc4ccccc4s3)on2)cc1`, the IC50 with MCF7 is 14.8 µM; in assay [1], 5.69 µM; in the assay with U-937, 13.5 µM; in the assay with A549, 31.8 µM.
In the same order, the values of `COc1ccc2nc(N(Cc3cc(-c4ccc(OC(F)(F)F)cc4)no3)c3nc4ccc(F)cc4s3)sc2c1` are 17.4 µM, 9.94 µM, 23.1 µM and 37.1 µM.
`C#CCN(c1ncccn1)c1nc2ccccc2s1`: the inhibition entry with COLO 205 [2] was “Active”. Also, the outcome (in the assay on COLO 205 [3]; in [4]) was Active. The IC50 in the assay with MCF7 is 18.3 µM; in assay [1] it was 12 µM; in the assay with U-937 it was 15.7 µM; with A549, 17.4 µM. Besides, the Activity in the assay with COLO 205 [5] is listed as 4.194%.
As for `COc1cc(-c2cc(CN(c3ncccn3)c3nc4ccccc4s3)on2)cc(OC)c1OC`, the IC50 with MCF7 came to 13.4 µM; in assay [1] it was 10.2 µM; with U-937, 26.1 µM; in the assay with A549, 28.4 µM.
The corresponding values for `COc1ccc2nc(N(Cc3cc(-c4ccc(Br)cc4)no3)c3nc4ccc(F)cc4s3)sc2c1` are 41.1 µM, 7 µM, 34.9 µM and 32.7 µM.
As to `COc1ccc(-c2cc(CN(c3ncccn3)c3nc4ccccc4s3)on2)cc1`, the inhibition entry (in the assay on COLO 205 [2]; in [8]; in assay [10]) was “Active” each time. In addition, the outcome (with COLO 205 [6]; in the assay on COLO 205 [3]; in the assay with COLO 205 [9]; in assay [4]; in the assay on COLO 205 [11]; in the assay with COLO 205 [12]) was Active. Further, the result in the assay with COLO 205 [7] was inactive. For the same molecule, the IC50 in the assay with MCF7 stood at 30.7 µM; in [1], 5.04 µM; with U-937, 13.9 µM; in the assay on A549, 30.4 µM. In the assay with COLO 205 [5], the Activity came to 17.72%.
Consider `COc1ccc2nc(N(Cc3cc(-c4ccccc4F)no3)c3nc4ccc(F)cc4s3)sc2c1`, for which the IC50 in the assay with MCF7 was 28.5 µM; in [1] it was 13.4 µM; in the assay with U-937 it was 29.4 µM; in the assay with A549, 51.8 µM.
In the same order, the values of `FC(F)(F)Sc1ccc(-c2cc(CN(c3ncccn3)c3nc4ccccc4s3)on2)cc1` are 17.2 µM, 10.1 µM, 19.4 µM and 29.8 µM.
In the case of `COc1ccc2nc(N(Cc3cc(-c4ccc(SC(F)(F)F)cc4)no3)c3nc4ccc(F)cc4s3)sc2c1`, the IC50 turned out to be 14.1 µM in the assay with MCF7, 11.1 µM in assay [1], 42.9 µM with U-937 and 26.5 µM in the assay with A549.
The corresponding values for `C#CCN(c1nc2ccc(F)cc2s1)c1nc2ccc(OC)cc2s1` are 27.8 µM, 30.3 µM, 24.9 µM and 24.4 µM.
For the molecule `COc1ccc2nc(N(Cc3cc(-c4cc(OC)c(OC)c(OC)c4)no3)c3nc4ccc(F)cc4s3)sc2c1`, the IC50 in the assay with MCF7 was 26.6 µM; in assay [1] it was 11.8 µM; in the assay with U-937, 44 µM; with A549 it was 61.9 µM.
In the case of `COc1cc([C@@H]2c3cc4c(cc3[C@@H](O[C@@H]3O[C@@H]5CO[C@@H](C)O[C@H]5[C@H](O)[C@H]3O)[C@H]3COC(=O)[C@H]23)OCO4)cc(OC)c1O` [ETOPOSIDE], the inhibition result with COLO 205 [2] was “Active”. Besides, the result (with COLO 205 [3]; in assay [4]) was Active. Moreover, the IC50 came to 0.008 µM in the assay with MCF7, 0.47 µM in [1], 10.1 µM with U-937 and 4.7 µM in the assay on A549. The Activity with COLO 205 [5] turned out to be 6.564%.
Take `Brc1ccc(-c2cc(CN(c3ncccn3)c3nc4ccccc4s3)on2)cc1`: the IC50 with MCF7 is 21.1 µM; in assay [1], 8.82 µM; with U-937, 13.6 µM; in the assay on A549, 31.5 µM.
For the molecule `COc1ccc(-c2cc(CN(c3nc4ccc(F)cc4s3)c3nc4ccc(OC)cc4s3)on2)cc1`, the IC50 with MCF7 was found to be 32.4 µM; in [1] it was 11.4 µM; in the assay on U-937, 138 µM; in the assay on A549 it was 38.8 µM.
The corresponding values for `Fc1ccccc1-c1cc(CN(c2ncccn2)c2nc3ccccc3s2)on1` are 19.5 µM, 13.2 µM, 27.6 µM and 25.4 µM.

The values above are taken from ChEMBL document CHEMBL3621053, “Isoxazole derivatives of 6-fluoro-N-(6-methoxybenzo[d]thiazol-2-yl)benzo[d]thiazol-2-amine and N-(pyrimidin-2-yl)benzo[d]thiazol-2-amine: regulation of cell cycle and apoptosis by p53 activation via mitochondrial-dependent pathways” (Medchemcomm, 2014).
